# Laboratory results taken from patent publication US4565816A, “Piperazine derivatives and pharmaceutical composition containing them” (Sandoz Ltd., priority 1982, dated 1986).
# What was measured:
# [1] = system: spontaneously beating guinea-pig atria; test: decrease of heart rate of spontaneously beating guinea-pig atria in vitro; conditions: Cavia porcellus, read-out: EC25 (concentration decreasing the rate of the spontaneously beating atria by 25%)
# Method: For example, in guinea-pig atria in vitro [method of R. P. Hof and G. Scholtysik, J. of Cardiovascular Pharmacology 5, 176-183 (1983)] a decrease of the heart rate of spontaneously beating atria is observed at a bath concentration of from about 1 μM to about 100 μM. The concentration decreasing the rate of the spontaneously beating atria by 25% (EC25 values) for some compounds of the present invention and the standard Alinidin are given in the following Table: […]
# mice = test: inhibition of locomotion in mice; type: in vivo, mouse (male, OF-1); conditions: Mus musculus, po, 1 hour after administration, minimum dose at which significant inhibition was observed, read-out: Locomotor inhibition EDmin
# Method: In particular, the compounds of formulae I and VII are useful as neuroleptic agents in the treatment of e.g. psychotic disorders such as schizophrenia, as indicated in standard tests, e.g. by an inhibition of locomotion in mice. In this test groups of 3 male mice (18-24 g, OF-1, Sandoz Basle) received 3.2, 10, 32, 100 and […]. of the test drug. 1 hour after drug administration the mice were observed individually and their locomotion compared with that of control. The locomotion of the animals was observed and the EDmin (the minimum dose at which significant inhibition was observed) determined.
# [2] = molecular target: T1, ^3 H-Spiperone binding sites (Bos taurus, UniProt P20288); test: ^3 H-Spiperone binding (calf brain striatal tissue); conditions: for IC50: calf brain striatal membranes, 0.1 nM ^3 H-Spiperone, 5×10^-7 M Cinanserin, 40 minutes at room temperature, read-out: Receptor binding IC50 ^3 H-Spiperone; for effect in the ^3 H-Spiperone binding test compared with Clozapine: in words, relative to Clozapine
# T1 construct: fresh calf brain striatal tissue was homogenized; from tissue; host or cells: calf brain striatum, membranes
# Method: The compounds of formulae I and VII bind further on ^3 H-Spiperone binding sites in the brain [modified method of J. Leysen et al., Biochem. Pharmac. […] The test was performed as follows: fresh calf brain striatal tissue was homogenized in the 25 fold volume of Tris buffer (pH 7.4, 50 mM, 120 mM sodium chloride) and centrifuged. The pellets were suspended in the 22 fold volume of Tris buffer, incubated for 15 minutes at 37° C. and centrifuged. The pellets were suspended in the 300 fold volume of Tris buffer. […] After incubation for 40 minutes at room temperature, the assay mixtures were raidly filtered through Whatman GF/B filter, the filters washed twice with 5 ml of ice cold Tris buffer and scintillation-counted.
# α1-receptors = test: ^3 H-Prazosin binding assay for α1-receptors (calf brain cortex); conditions: calf brain cortex membranes, 0.3 nM ^3 H-Prazosin, pH 7.7, 40 min room temperature; read-out: IC50, inhibition of specific ^3 H-Prazosin binding
# Method: The compounds of formulae I and VII are furthermore useful as anti-hypertensive agents, as indicated in standard tests, for example in the ^3 H-Prazosin binding assay for α1 -receptors [modified method of Greengrass P., et al., Eur. J. Pharmac. 55, 323-326 (1979)]. The test was performed as follows:
# Fresh calf brain cortex tissue is homogenized in a 20 fold volume of Tris-HCl buffer (50 mM, pH 7.7), using a Polytron PT 20, and centrifuged at 30'000 xg for 25 min. The pellets are resuspended in a 13 fold volume of the same buffer, incubated for 15 min at 37° C., and recentrifuged at 50'000 xg for 11 min. The pellets of this centrifugation are frozen at -20° C. and resuspended in a 60 fold volume of the same buffer as above before use for the binding experiment. The composition of the assay mixtures (total volume=2 ml) is as follows: 50 mM Tris-HCl pH 7.7, membranes corresponding to 30 mg of original tissue weight, and 0.3 nM ^3 H-Prazosin. The assays for the definition of nonspecific binding additionally contain phentolamine at a concentration of 10 μM. To assess the potency of drugs in inhibiting specific ^3 H-Prazosin binding (difference between total and nonspecific binding), the test compounds are added to give 5 to 9 different concentrations between 1 nM and 10 μM, each in duplicate. After incubation for 40 min at room temperature, the assay mixtures are rapidly filtered through Whatman GF/B filters and washed twice with 5 ml of ice cold Tris buffer. The radioactivity of the filters is estimated by scintillation counting.
# female normotonic rats = test: blood pressure / heart rate in anaesthetized normotonic rats; type: in vivo, rat (female, Sprague-Dawley); conditions: Rattus norvegicus, iv; urethane-anaesthetized rats, cumulative i.v. doses 3 to 1443 μg/kg, interpolated; read-out: ED75 (dose required to reduce the blood pressure on the heart rate to 75% of pretreatment values)
# Method: In another test female normotonic rats (200-350 g, Sprague-Dawley, Suddeutsche Tierfarm, Tuttlingen, FRG) were anaesthetized with urethane (1.5-1.75 g/kg i.p. in 2 portions) and a tracheal cannula was inserted. Blood pressure and heart rate were recorded from the carotid artery by conventional methods. Test drug were administered by the jugular or the femoral vein. Body temperature was maintained at 37° C. by means of a temperature regulator (Alfos MK-4) triggered by a thermistor on the animal. After adaptation, increasing doses of the test drug were injected i.v. to give the following cumulative doses: 3, 13, 43, 143, […] and 1443 μg/kg. ED 75% is the dose required to reduce the blood pressure on the heart rate to 75% of pretreatment values. It was obtained through interpolation. The ED75 of the Example 4 compound is 6 μg, of Example 5s compound 3 μg, of Example 8 g 4 μg and of Guanfacine 57 μg.
# T1 sequence (P20288 whole entry): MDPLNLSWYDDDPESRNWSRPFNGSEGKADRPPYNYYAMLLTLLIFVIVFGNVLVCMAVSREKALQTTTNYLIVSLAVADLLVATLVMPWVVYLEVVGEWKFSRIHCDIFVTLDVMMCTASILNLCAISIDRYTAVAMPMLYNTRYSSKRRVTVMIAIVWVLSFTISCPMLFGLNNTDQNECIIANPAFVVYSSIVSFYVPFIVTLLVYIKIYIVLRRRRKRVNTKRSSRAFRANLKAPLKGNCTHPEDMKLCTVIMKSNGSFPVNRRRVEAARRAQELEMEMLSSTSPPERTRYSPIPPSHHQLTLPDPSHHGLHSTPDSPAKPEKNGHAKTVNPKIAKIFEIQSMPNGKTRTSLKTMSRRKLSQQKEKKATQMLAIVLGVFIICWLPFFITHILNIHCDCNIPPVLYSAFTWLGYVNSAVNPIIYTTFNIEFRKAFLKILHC
SMILES,minimal effective dose (mice) [mg/kg],IC50 [2] [nM],also measured
"C=CCN(C1=NCCN1)c1c(Cl)cccc1Cl [Alinidin, reference compound]",,,EC25 [1]: 6.5 µM
"CN1CCN(C2=Nc3cc(Cl)ccc3Nc3ccccc32)CC1 [Clozapine, reference compound]",3.2,,
"O=C(CCCN1CCN(c2ccc3[nH]cnc3n2)CC1)c1ccc(F)cc1 [Example 1, 1-(4-Fluorophenyl)-4-[4-(1H-imidazo[4,5-b]pyridin-5-yl)-1-piperazinyl]-1-butanone]",1,306,effect in the ^3 H-Spiperone binding test compared with Clozapine [2]: stronger effects; EC25 [1]: 7.8 µM
Cc1nc2ccc(N3CCN(CCCC(=O)c4ccc(F)cc4)CC3)nc2n1C [Example 3d],,,IC50 (α1-receptors): 2.2 nM
CCc1nc2ccc(N3CCN(CCCC(=O)c4ccc(F)cc4)CC3)nc2[nH]1 [Example 3i],3.2,246,effect in the ^3 H-Spiperone binding test compared with Clozapine [2]: stronger effects
O=C(CCCN1CCN(c2cc3[nH]cnc3cn2)CC1)c1ccc(F)cc1 [Example 3r],≤ 3.2,441,
"CC(=O)Nc1cnc(N2CCN(CCCC(=O)c3ccc(F)cc3)CC2)cc1NC(C)=O [Example 4, 4-[4-(4,5-Diacetylamino-2-pyridinyl)-1-piperazinyl]-1-(4-fluorophenyl)-1-butanone]",,,IC50 (α1-receptors): < 1 nM; ED75 (female normotonic rats): 6 µg/kg
CC(=O)Nc1ccc(N2CCN(CCCC(=O)c3ccc(F)cc3)CC2)nc1NC(C)=O [Example 5c],1,4600,
CC(=O)Nc1cnc(N2CCN(CCCOc3ccc(F)cc3)CC2)cc1NC(C)=O [Example 5s],,,ED75 (female normotonic rats): 3 µg/kg
"Cc1nc2ccc(N3CCN(CCCC(=O)c4ccc(F)cc4)CC3)nc2nc1C [Example 7, 4-[4-(2,3-Dimethyl-pyrido[2,3-b]pyrazin-6-yl)-1-piperazinyl]-1-(4-fluorophenyl)-1-butanone]",10,205,
Cc1nc2cnc(N3CCN(CCCC(=O)c4ccc(F)cc4)CC3)cc2nc1C [Example 8c],10,121,
O=C(CCCN1CCN(c2cc3nccnc3cn2)CC1)c1ccc(F)cc1 [Example 8d],,,EC25 [1]: 4 µM
Fc1ccc(OCCCN2CCN(c3cc4nccnc4cn3)CC2)cc1 [Example 8g],,,ED75 (female normotonic rats): 4 µg/kg; EC25 [1]: 2.15 µM
"N=C(N)NC(=O)Cc1c(Cl)cccc1Cl [Guanfacine, reference compound]",,,IC50 (α1-receptors): 3700 nM; ED75 (female normotonic rats): 57 µg/kg
